Measurements published in patent US20250034173A1, “PYRIDO[4,3-D]PYRIMIDINE COMPOUNDS” (PFIZER INC., priority 2023, published 2025).

What was measured:
KRAS G12V [1] = molecular target: T1, KRAS G12V (Homo sapiens (Human), UniProt P01116, G12V); experiment: SPR binding affinity and kinetics, GDP-loaded KRAS G12V; details: GDP loaded protein, geomean
Source text: (§1) No additional regeneration was used.
(§2) Compound dissociation was monitored for at least 3600 seconds. […] No additional regeneration was used.
(§3) The adequateness of the fit was judged by c2 values and the randomness of residue distribution.

KRAS G12C [2] = molecular target: T2, KRAS G12C (Homo sapiens (Human), UniProt P01116, G12C); experiment: SPR binding affinity and kinetics, GDP-loaded KRAS G12C; details: GDP loaded protein, geomean
Source text: as §1, §2, §3

KRAS G12D [3] = molecular target: T3, KRAS G12D (Homo sapiens (Human), UniProt P01116, G12D); experiment: SPR binding affinity and kinetics, GDP-loaded KRAS G12D; details: GDP loaded protein, geomean
Source text: as §1, §2, §3

[4] = tested on: PANC08.13 (pancreatic cancer cell line); experiment: KRAS Cell Titer Glo (CTG) cell proliferation assay, PANC08.13; assay type: cell-based; details: Homo sapiens, PANC-08-13, 168 h; PANC08.13 cells, 7-day CTG, geomean IC50
In short: (§4)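 Compounds pre-dispensed in 0.1% DMSO before seeding H358 (300 cells/well), SW620 (750) or PANC08.13 (600); 7-day exposure at 37 °C, 5% CO2. Viability by CellTiter-Glo luminescence after 15 min at room temperature. Percent effect normalised to DMSO (0%) and 1 uM trametinib (100%); geomean IC50.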

[5] = tested on: H358 (non-small cell lung cancer cell line); experiment: KRAS Cell Titer Glo (CTG) cell proliferation assay, H358; assay type: cell-based; details: Homo sapiens, NCI-H358, 168 h; H358 cells, 7-day CTG, geomean IC50
In short: as §4

KRAS G12D [6] = molecular target: T3, KRAS G12D; experiment: SPR binding affinity and kinetics, GTPγS-loaded KRAS G12D; details: GTPγS loaded protein, geomean
In short: (§5)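 SPR; dissoc ≥3600 s; no extra regeneration; fit quality by c2 + residual randomness.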

HRAS Wild Type = HRAS Wild Type (Homo sapiens (Human), UniProt P01112); experiment: SPR binding affinity and kinetics, GTPγS-loaded HRAS Wild Type; details: GTPγS loaded protein, geomean
In short: as §5

KRAS Wild Type [7] = molecular target: T4, KRAS Wild Type (Homo sapiens (Human), UniProt P01116); experiment: SPR binding affinity and kinetics, GTPγS-loaded KRAS Wild Type; details: GTPγS loaded protein, geomean
In short: as §5

KRAS Wild Type [8] = molecular target: T4, KRAS Wild Type; experiment: SPR binding affinity and kinetics, GDP-loaded KRAS Wild Type; details: GDP loaded protein, geomean
Source text: as §1, §2, §3

KRAS G12V [9] = molecular target: T1, KRAS G12V; experiment: SPR binding affinity and kinetics, GTPγS-loaded KRAS G12V; details: GTPγS loaded protein, geomean
In short: as §5

NRAS Wild Type = NRAS Wild Type (Homo sapiens (Human), UniProt P01111); experiment: SPR binding affinity and kinetics, GTPγS-loaded NRAS Wild Type; details: GTPγS loaded protein, geomean
In short: as §5

[10] = tested on: SW620 (colorectal cancer cell line); experiment: KRAS Cell Titer Glo (CTG) cell proliferation assay, SW620; assay type: cell-based; details: Homo sapiens, SW-620, 168 h; SW620 cells, 7-day CTG, geomean IC50
In short: as §4

KRAS G12C [11] = molecular target: T2, KRAS G12C; experiment: SPR binding affinity and kinetics, GTPγS-loaded KRAS G12C; details: GTPγS loaded protein, geomean
In short: as §5

T3 sequence (P01116 other isoform, or with tags, fused parts or gaps G12D): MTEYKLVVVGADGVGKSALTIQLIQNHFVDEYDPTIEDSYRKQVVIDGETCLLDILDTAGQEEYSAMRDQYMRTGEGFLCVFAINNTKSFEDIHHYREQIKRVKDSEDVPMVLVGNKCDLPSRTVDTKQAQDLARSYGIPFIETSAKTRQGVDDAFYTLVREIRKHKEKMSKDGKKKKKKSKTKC
T4 sequence (P01116 other isoform, or with tags, fused parts or gaps): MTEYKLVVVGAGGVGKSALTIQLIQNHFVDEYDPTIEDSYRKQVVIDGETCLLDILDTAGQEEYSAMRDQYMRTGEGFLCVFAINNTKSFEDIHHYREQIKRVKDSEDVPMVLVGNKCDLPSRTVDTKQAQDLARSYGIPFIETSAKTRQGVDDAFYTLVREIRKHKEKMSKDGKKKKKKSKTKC
T2 sequence (P01116 other isoform, or with tags, fused parts or gaps G12C): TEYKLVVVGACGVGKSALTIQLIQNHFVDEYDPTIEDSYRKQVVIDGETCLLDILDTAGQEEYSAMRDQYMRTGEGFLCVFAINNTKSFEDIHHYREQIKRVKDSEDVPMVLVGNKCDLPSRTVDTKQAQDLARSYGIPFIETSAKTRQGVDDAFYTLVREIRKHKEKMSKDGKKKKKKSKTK
T1 sequence (P01116 other isoform, or with tags, fused parts or gaps G12V): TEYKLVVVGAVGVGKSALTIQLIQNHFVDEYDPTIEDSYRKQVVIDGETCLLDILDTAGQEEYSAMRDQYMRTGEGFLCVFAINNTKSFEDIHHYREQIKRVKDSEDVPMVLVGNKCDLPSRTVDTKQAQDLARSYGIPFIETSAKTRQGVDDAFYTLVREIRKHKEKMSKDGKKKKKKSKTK
Sequence of NRAS Wild Type (P01111 2-185): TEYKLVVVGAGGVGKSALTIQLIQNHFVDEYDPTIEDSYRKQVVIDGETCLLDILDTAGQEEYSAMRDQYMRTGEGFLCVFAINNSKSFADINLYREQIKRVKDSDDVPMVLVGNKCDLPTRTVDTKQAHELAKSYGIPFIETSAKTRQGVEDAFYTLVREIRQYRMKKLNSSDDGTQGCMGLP
Sequence of HRAS Wild Type (P01112 2-184): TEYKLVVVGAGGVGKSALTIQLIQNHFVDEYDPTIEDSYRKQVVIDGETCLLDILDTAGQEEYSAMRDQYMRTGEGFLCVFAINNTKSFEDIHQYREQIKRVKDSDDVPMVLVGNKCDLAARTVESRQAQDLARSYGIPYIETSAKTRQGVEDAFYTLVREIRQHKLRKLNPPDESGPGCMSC

Kd (KRAS G12V [1]): 0.144 nM | Kd (KRAS G12C [2]): 0.019 nM | Kd (KRAS G12D [3]): 0.041 nM | IC50 [4]: < 2 nM | IC50 [5]: 10 nM | Kd (KRAS G12D [6]): 1 nM | Kd (HRAS Wild Type): > 10000 nM | Kd (KRAS Wild Type [7]): 5 nM | Kd (KRAS Wild Type [8]): 0.004 nM | Kd (KRAS G12V [9]): 4 nM | Kd (NRAS Wild Type): > 10000 nM | IC50 [10]: 14 nM | Kd (KRAS G12C [11]): 5 nM
Compound: C=C1CN2CCC[C@@]2(COc2nc3c4c(nc(-c5c(C6CC6)c(Cl)cc6[nH]ncc56)c(F)c4n2)OC[C@@H]2COCCCN32)C1 [Example 2, (8aS)-5-(6-chloro-5-cyclopropyl-1H-indazol-4-yl)-4-fluoro-2-{[(7aS)-2-methylidenetetrahydro-1H-pyrrolizin-7a(5H)-yl]methoxy}-8a,9,12,13-tetrahydro-8H,11H-7,10-dioxa-1,3,6,13a-tetraazanaphtho[1,8-ab]heptalene]
